Experimental data taken from patent publication US20050197364A1, “Amide compounds as ion channel ligands and uses thereof” (priority 2003, published 2005).

These molecules were tested on VR1 receptor (assay: High throughput calcium imaging assay (Fura2, Flex Station) of VR1 antagonists, pH 5.1 stimulus). Conditions: 1 uM compound; inhibition of calcium ion influx induced by capsaicin stimulation.
Type: cell-based
Protocol: Therefore the functional activity of compounds at the VR1 receptor may be determined by measuring changes in intracellular calcium levels in 293 cells expressing capsaicin-insensitive VR1 receptor variants. A dual wavelength ratiometric dye, Fura2, was used as an indicator of relative levels of calcium ions in a 96 well format using a bench top scanning fluorometer with integrated fluidics and temperature control (Flex Station, Molecular Devices).
293 cells were grown on PDL coated 96-well black-walled plates, in the presence of a DMEM medium containing 5% Penstrep, 5% Glutamax, 200 ug/mL Hygromycin, 5 μg/mL Blasticide and 10% heat inactivated FBS. Prior to assay, the cells were loaded with 5 μg/mL Fura2 in normal saline solution at 37° C. for 40 minutes. Cells were then washed with normal saline to remove the dye.
The assay consists of two stages; a pre-treatment phase followed by a treatment phase.
50 μl of a compound solution was added to the cells (Pre-treatment). Immediately following, 50 μl of the test compound in a saline solution at pH 5.1 was added. Fura2 was excited at 340 and 380 nM to indicate relative calcium concentration. Changes in wavelength measurements were made throughout the course of the experiment in 4 second intervals over a period of 3 minutes. Responses were measured as peak fluorescence ratio after test compound addition minus baseline fluorescence ratio prior to pre-treatment and were calculated using SoftMaxPro softwareData were expressed as percentage inhibition calculated using Excel as follows: [formula]

Structure (SMILES)	% Inhibition @ 1 uM
O=C(Nc1ccc2c(c1)OCCO2)c1ccc(-c2ncccc2Cl)cc1 [Compound 1]	+ + (compound exhibited 25-50% inhibition of calcium ion influx induced by capsaicin stimulation)
COc1cccc(NC(=O)c2ccc(-c3ncccc3Cl)cc2)c1 [Compound 2]	+ (compound exhibited 0-25% inhibition of calcium ion influx induced by capsaicin stimulation)
O=C(Nc1ccccc1)c1ccc(-c2ncccc2Cl)cc1 [Compound 3]	+ (compound exhibited 0-25% inhibition of calcium ion influx induced by capsaicin stimulation)
O=C(Nc1ccc2[nH]ccc2c1)c1ccc(-c2ncccc2Cl)cc1 [Compound 4]	+ + + + (compound exhibited 75% or greater inhibition of calcium ion influx induced by capsaicin stimulation)
COc1ccc(NC(=O)c2ccc(-c3ncccc3Cl)cc2)cc1 [Compound 5]	+ + (compound exhibited 25-50% inhibition of calcium ion influx induced by capsaicin stimulation)
O=C(Nc1ccncc1)c1ccc(-c2ncccc2Cl)cc1 [Compound 7]	+ + + + (compound exhibited 75% or greater inhibition of calcium ion influx induced by capsaicin stimulation)
O=C(Nc1cccnc1)c1ccc(-c2ncccc2Cl)cc1 [Compound 8]	+ + + + (compound exhibited 75% or greater inhibition of calcium ion influx induced by capsaicin stimulation)
O=C(Nc1cc[nH]n1)c1ccc(-c2ncccc2Cl)cc1 [Compound 9]	+ (compound exhibited 0-25% inhibition of calcium ion influx induced by capsaicin stimulation)
N#Cc1ccccc1NC(=O)c1ccc(-c2ncccc2Cl)cc1 [Compound 11]	+ (compound exhibited 0-25% inhibition of calcium ion influx induced by capsaicin stimulation)
O=C(Nc1cccc(Cl)c1)c1ccc(-c2ncccc2Cl)cc1 [Compound 12]	+ (compound exhibited 0-25% inhibition of calcium ion influx induced by capsaicin stimulation)
COc1ccccc1NC(=O)c1ccc(-c2ncccc2Cl)cc1 [Compound 13]	+ + + + (compound exhibited 75% or greater inhibition of calcium ion influx induced by capsaicin stimulation)
O=C(Nc1ccccc1Cl)c1ccc(-c2ncccc2Cl)cc1 [Compound 15]	+ (compound exhibited 0-25% inhibition of calcium ion influx induced by capsaicin stimulation)
O=C(Nc1ccc(Cl)cc1Cl)c1ccc(-c2ncccc2Cl)cc1 [Compound 16]	+ (compound exhibited 0-25% inhibition of calcium ion influx induced by capsaicin stimulation)
COc1ccc(NC(=O)c2ccc(-c3ncccc3Cl)cc2)cc1Cl [Compound 17]	+ (compound exhibited 0-25% inhibition of calcium ion influx induced by capsaicin stimulation)
O=C(Nc1ccc(Cl)c(C(F)(F)F)c1)c1ccc(-c2ncccc2Cl)cc1 [Compound 20]	+ + + (compound exhibited 50-75% inhibition of calcium ion influx induced by capsaicin stimulation)
O=C(Nc1cccc(Br)c1)c1ccc(-c2ncccc2Cl)cc1 [Compound 21]	+ (compound exhibited 0-25% inhibition of calcium ion influx induced by capsaicin stimulation)
N#Cc1cccc(NC(=O)c2ccc(-c3ncccc3Cl)cc2)c1 [Compound 22]	+ (compound exhibited 0-25% inhibition of calcium ion influx induced by capsaicin stimulation)
O=C(Nc1ccccc1CCO)c1ccc(-c2ncccc2Cl)cc1 [Compound 23]	+ + + (compound exhibited 50-75% inhibition of calcium ion influx induced by capsaicin stimulation)
CC(C)c1ccc(NC(=O)c2ccc(-c3ncccc3Cl)cc2)cc1 [Compound 25]	+ + + + (compound exhibited 75% or greater inhibition of calcium ion influx induced by capsaicin stimulation)

Structure (SMILES)	% Inhibition @ 1 uM
CCCCc1ccc(NC(=O)c2ccc(-c3ncccc3Cl)cc2)cc1 [Compound 26]	+ + (compound exhibited 25-50% inhibition of calcium ion influx induced by capsaicin stimulation)
O=C(Nc1ccc(C2CCCCC2)cc1)c1ccc(-c2ncccc2Cl)cc1 [Compound 27]	+ + + + (compound exhibited 75% or greater inhibition of calcium ion influx induced by capsaicin stimulation)
COc1cc(NC(=O)c2ccc(-c3ncccc3Cl)cc2)cc(C(F)(F)F)c1 [Compound 28]	+ + (compound exhibited 25-50% inhibition of calcium ion influx induced by capsaicin stimulation)
O=C(Nc1cccnc1Cl)c1ccc(-c2ncccc2Cl)cc1 [Compound 30]	+ + (compound exhibited 25-50% inhibition of calcium ion influx induced by capsaicin stimulation)
O=C(Nc1ccc(Cl)nc1)c1ccc(-c2ncccc2Cl)cc1 [Compound 31]	+ (compound exhibited 0-25% inhibition of calcium ion influx induced by capsaicin stimulation)
COc1ccc(NC(=O)c2ccc(-c3ncccc3Cl)cc2)cn1 [Compound 32]	+ (compound exhibited 0-25% inhibition of calcium ion influx induced by capsaicin stimulation)
O=C(Nc1ccnc(Cl)c1)c1ccc(-c2ncccc2Cl)cc1 [Compound 33]	+ + + + (compound exhibited 75% or greater inhibition of calcium ion influx induced by capsaicin stimulation)
O=C(Nc1ccc2c(c1)OCO2)c1ccc(-c2ncccc2Cl)cc1 [Compound 34]	+ (compound exhibited 0-25% inhibition of calcium ion influx induced by capsaicin stimulation)
Cc1cc(NC(=O)c2ccc(-c3ncccc3Cl)cc2)nc(C)n1 [Compound 35]	+ (compound exhibited 0-25% inhibition of calcium ion influx induced by capsaicin stimulation)
O=C(Nc1ccc2c(c1)Cc1ccccc1-2)c1ccc(-c2ncccc2Cl)cc1 [Compound 36]	+ + (compound exhibited 25-50% inhibition of calcium ion influx induced by capsaicin stimulation)
Cc1cc(C)nc(NC(=O)c2ccc(-c3ncccc3Cl)cc2)c1 [Compound 37]	+ (compound exhibited 0-25% inhibition of calcium ion influx induced by capsaicin stimulation)
O=C(Nc1nccs1)c1ccc(-c2ncccc2Cl)cc1 [Compound 38]	+ (compound exhibited 0-25% inhibition of calcium ion influx induced by capsaicin stimulation)
CC(C)(CO)NC(=O)c1ccc(-c2ncccc2Cl)cc1 [Compound 41]	+ (compound exhibited 0-25% inhibition of calcium ion influx induced by capsaicin stimulation)
CN(C)c1cccc(NC(=O)c2ccc(-c3ncccc3Cl)cc2)c1 [Compound 43]	+ + + + (compound exhibited 75% or greater inhibition of calcium ion influx induced by capsaicin stimulation)
CCN(CC)c1ccc(NC(=O)c2ccc(-c3ncccc3Cl)cc2)cc1 [Compound 44]	+ + + + (compound exhibited 75% or greater inhibition of calcium ion influx induced by capsaicin stimulation)
O=C(Nc1ccc(N2CCNCC2)cc1)c1ccc(-c2ncccc2Cl)cc1 [Compound 45]	+ (compound exhibited 0-25% inhibition of calcium ion influx induced by capsaicin stimulation)
Cc1cccnc1NC(=O)c1ccc(-c2ncccc2Cl)cc1 [Compound 48]	+ + (compound exhibited 25-50% inhibition of calcium ion influx induced by capsaicin stimulation)
O=C(Nc1ccc(Br)cn1)c1ccc(-c2ncccc2Cl)cc1 [Compound 49]	+ + (compound exhibited 25-50% inhibition of calcium ion influx induced by capsaicin stimulation)
O=C(Nc1ccc(C(F)(F)F)cn1)c1ccc(-c2ncccc2Cl)cc1 [Compound 50]	+ + (compound exhibited 25-50% inhibition of calcium ion influx induced by capsaicin stimulation)
